Reference: patent US8389508B2 (Glaxo Group Limited, priority 2010, dated 2013)
Structures can show the parent of a compound that is named as a salt.

What was measured:
[1] = molecular target: T1, human Endothelial Differentiation Gene 1 (EDG1), S1P1 receptor (Homo sapiens, UniProt P21453); assay: S1P1 Assay (Tango EDG1-bla/U2OS beta-lactamase reporter, agonist dose response); format: cell-based; settings: EDG1-bla/U2OS cells, blue/green emission ratio, 10 point dose response, free base or salt form; read-out: pEC50 (S1P1 assay) (converted)
T1 construct: TEV protease site; Gal4-VP16 transcription factor; expressed in transfected cells; host or cells: EDG1-bla/U2OS (Tango GPCR-bla U2OS parental cell line)
Protocol: Recombinant EDG1-bla/U2OS cells (contain the human Endothelial Differentiation Gene 1 (EDG1) linked to a TEV protease site and a Gal4-VP16 transcription factor stably integrated into the Tango GPCR-bla U2OS parental cell line) were harvested from growth medium and passaged into assay medium (Invitrogen Freestyle Expression Medium). The cells were starved for 24 hours at 37° C., 5% CO2, harvested and resuspended in assay medium at a density of ˜200,000 cells/ml. All test compounds were dissolved in DMSO at a concentration of 10 mM and were prepared in 100% DMSO to provide 10 point dose response curves. Test compounds in the free base or in a salt form were prepared by Velocity11 Bravo automation (Agilent) were added to wells in columns 2-11 and 13-22; DMSO was added to wells in columns 12 and 23 as unstimulated controls and assay medium was added to wells in columns 1 and 24 as cell-free controls. An S1P1 agonist was added to wells in row 2, columns 2-11 as stimulated controls and test compounds were added to wells in row 2, columns 13-22 and rows 3-15, columns 2-11/13-22 (row 1 and 16 were empty and not used). Compounds in solution were added to the assay plate (Greiner 781090) using an Echo (Labcyte) dose-response program (50 nl/well). The unstimulated and cell-free controls were loaded with 50 nl/well pure DMSO to ensure that the DMSO concentration was constant across the plate for all assays. 50 μl of the cell suspension was added to each well in columns 2-23 of the plate (˜10,000 cells per well). 50 μl of assay medium was added to each well in the cell-free controls (columns 1 and 24). The cells were incubated overnight at 37° C./5% CO2.
(§1) 10 μl of 6× substrate mixture (LiveBLAzer™-FRET B/G substrate (CCF4-AM) Cat # K1096 from Invitrogen, Inc.) was added to each well using Bravo automation and the plates incubated at room temperature for 2 h in the dark. The plate was finally read on EnVision using one excitation channel (409 nm) and two emission channels (460 nm and 530 nm).
(§2) The blue/green emission ratio (460 nm/530 nm) was calculated for each well, by dividing the background-subtracted Blue emission values by the background-subtracted Green emission values. The dose response curve is based on sigmoidal dose-response model. All ratio data was normalized based upon the maximum emission ratio of positive control and minimum emission ratio of negative control (DMSO) on each plate. The intrinsic activity (IA) of each compound is defined as relative response normalised to a reference compound, whose maximum response is defined as 100% after curve fitting.

[2] = molecular target: T2, human Endothelial Differentiation G-protein Coupled Receptor 3 (EDG3), S1P3 receptor (Homo sapiens, UniProt Q99500); assay: S1P3 Assay (GeneBLAzer EDG3-Ga15-NFAT-bla HEK 293T beta-lactamase reporter, agonist dose response); format: cell-based; settings: EDG3-Ga15-NFAT-bla HEK 293T cells, blue/green emission ratio, 10 point dose response, free base or salt form; read-out: pEC50 (S1P3 assay) (converted)
T2 construct: expressed in transfected cells; host or cells: GeneBLAzer EDG3-Ga15-NFAT-bla HEK 293T
Protocol: GeneBLAzer EDG3-Ga15-NFAT-bla HEK 293T cells (contain the human Endothelial Differentiation G-protein Coupled Receptor 3 (EDG3) and a beta-lactamase reporter gene under control of a NFAT response element and a promiscuous G Protein, Ga15, stably integrated into the GeneBLAzer Ga15-NFAT-bla HEK 293T cell line) were harvested from growth medium and suspended in assay medium (90% DMEM, 10% Charcoal-stripped FBS, 0.1 mM NEAA, 25 mM HEPES (pH 7.3), 100 U/ml penicillin, 100 μg/ml streptomycin) at a density of […]. All test compounds were dissolved in DMSO at a concentration of 10 mM and were prepared in 100% DMSO to provide 10 point dose response curves. Test compounds in the free base or in a salt form were prepared by Velocity 11 Bravo automation (Agilent) were added to wells in columns 2-11 and 13-22; DMSO was added to wells in columns 12 and 23 as unstimulated controls and assay medium was added to wells in columns 1 and 24 as cell-free controls. An S1P3 agonist was added to wells in row 2, columns 2-11 as stimulated controls and test compounds were added to wells in row 2, columns 13-22 and rows 3-15, columns 2-11/13-22 (row 1 and 16 were empty and not used). Compounds in solution were added to the assay plate (Greiner 781090) using an Echo (Labcyte) dose-response program (50 nl/well). The unstimulated and cell-free controls were loaded with 50 nl/well pure DMSO to ensure that the DMSO concentration was constant across the plate for all assays.
50 μl of the cell suspension was added to each well in columns 2-23 of the plate (˜10,000 cells per well). 50 μl of assay medium was added to each well in the cell-free controls (columns 1 and 24). The cells were incubated overnight at 37° C./5% CO2.
as §1, §2

T2 sequence (Q99500 whole entry): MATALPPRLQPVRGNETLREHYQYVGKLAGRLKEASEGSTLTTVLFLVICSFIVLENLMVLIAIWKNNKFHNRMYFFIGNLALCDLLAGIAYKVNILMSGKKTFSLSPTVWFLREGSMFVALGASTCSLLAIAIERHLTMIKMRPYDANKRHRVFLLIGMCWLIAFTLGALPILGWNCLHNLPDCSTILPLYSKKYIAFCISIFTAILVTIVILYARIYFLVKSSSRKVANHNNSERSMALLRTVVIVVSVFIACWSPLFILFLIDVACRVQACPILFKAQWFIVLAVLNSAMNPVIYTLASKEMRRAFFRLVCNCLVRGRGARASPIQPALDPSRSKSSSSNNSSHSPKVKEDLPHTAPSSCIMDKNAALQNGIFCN
T1 sequence (P21453 whole entry, the tested form may be a part): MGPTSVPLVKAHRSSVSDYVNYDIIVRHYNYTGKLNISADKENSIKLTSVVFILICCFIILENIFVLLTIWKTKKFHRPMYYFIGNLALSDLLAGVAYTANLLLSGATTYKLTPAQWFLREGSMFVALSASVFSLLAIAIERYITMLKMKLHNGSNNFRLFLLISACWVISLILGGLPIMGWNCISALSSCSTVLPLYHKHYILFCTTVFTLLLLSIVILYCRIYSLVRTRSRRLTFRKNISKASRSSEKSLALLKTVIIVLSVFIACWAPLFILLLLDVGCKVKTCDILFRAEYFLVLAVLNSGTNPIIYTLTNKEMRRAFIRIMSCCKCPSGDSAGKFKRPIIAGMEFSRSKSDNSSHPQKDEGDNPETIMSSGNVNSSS

Compound	EC50 [1] [nM]	EC50 [2] [µM]
CCc1c(CCN2CCC[C@H]2C(=O)O)cccc1-c1nsc(-c2ccc(OC(C)C)c(Cl)c2)n1 [Example 65, 1-{2-[3-(5-{3-chloro-4-[(1-methylethyl)oxy]phenyl}-1,2,4-thiadiazol-3-yl)-2-ethylphenyl]ethyl}-L-proline trifluoroacetate]	≤ 10	> 3.16
CCc1c(CN2CCC[C@H](C(=O)O)C2)cccc1-c1nnc(-c2ccc(CC(C)C)c(C#N)c2)s1 [Example 51]	< 1	> 10
CCc1c(CN2CCC(C(=O)O)CC2)cccc1-c1nnc(-c2ccc(OC(C)C)c(C(F)(F)F)c2)s1 [Example 1, 1-[(2-ethyl-3-{5-[4-[(1-methylethyl)oxy]-3-(trifluoromethyl)phenyl]-1,3,4-thiadiazol-2-yl}phenyl)methyl]-4-piperidinecarboxylic acid]	< 1	> 3.16
CCc1c(CN2CC(C(=O)O)C2)cccc1-c1cnc(-c2ccc(OC(C)C)c(Cl)c2)s1 [Example 39, 1-{[3-(2-{3-chloro-4-[(1-methylethyl)oxy]phenyl}-1,3-thiazol-5-yl)-2-ethylphenyl]methyl}-3-azetidinecarboxylic acid trifluoroacetate]	< 1	> 10
CCc1c(CC2CCN(CCC(=O)O)CC2)cccc1-c1nsc(-c2ccc(OC(C)C)c(Cl)c2)n1 [Example 106, 3-(4-{[3-(5-{3-chloro-4-[(1-methylethyl)oxy]phenyl}-1,2,4-thiadiazol-3-yl)-2-ethylphenyl]methyl}-1-piperidinyl)propanoic acid trifluoroacetate]	< 100	> 3.16
COc1c(CCN2CC(C(=O)O)C2)cc(F)cc1-c1nnc(-c2ccc(OC(C)C)c(C(F)(F)F)c2)s1 [Example 14, 1-{2-[5-fluoro-3-{5-[4-[(1-methylethyl)oxy]-3-(trifluoromethyl)phenyl]-1,3,4-thiadiazol-2-yl}-2-(methyloxy)phenyl]ethyl}-3-azetidinecarboxylic acid]	≤ 10	> 10
CCc1c(CCN2CCC[C@H]2C(=O)O)cccc1-c1nsc(-c2ccc(CC(C)C)c(C#N)c2)n1 [Example 76, 1-[2-(3-{5-[3-cyano-4-(2-methylpropyl)phenyl]-1,2,4-thiadiazol-3-yl}-2-ethylphenyl)ethyl]-L-proline trifluoroacetate]	≤ 10	> 3.16
CCc1c(CCN2CCCC(C(=O)O)C2)cccc1-c1nnc(-c2ccc(OC(C)C)c(Cl)c2)s1 (stereo not drawn) [Example 56]	< 1	> 3.16
CCc1c(CCN2C[C@H](O)C[C@H]2C(=O)O)cccc1-c1cnc(-c2ccc(OC(C)C)c(C#N)c2)s1 [Example 91]	≤ 10	> 10
CCc1c(-c2nsc(-c3ccc(OC(C)C)c(Cl)c3)n2)cccc1C1CCN(CCCC(=O)O)CC1 [Example 102, 4-{4-[3-(5-{3-chloro-4-[(1-methylethyl)oxy]phenyl}-1,2,4-thiadiazol-3-yl)-2-ethylphenyl]-1-piperidinyl}butanoic acid trifluoroacetate]	≤ 10	> 10
CCc1c(CCN2C[C@H](O)C[C@H]2C(=O)O)cccc1-c1nsc(-c2ccc(OC(C)C)c(Cl)c2)n1 [Example 69]	< 1	> 3.16
CCc1c(CN2CC(C(=O)O)C2)cccc1-c1cnc(-c2ccc(CC(C)C)c(C#N)c2)s1 [Example 43, 1-[(3-{2-[3-cyano-4-(2-methylpropyl)phenyl]-1,3-thiazol-5-yl}-2-ethylphenyl)methyl]-3-azetidinecarboxylic acid trifluoroacetate]	< 1	> 3.16
COc1c(CCN2CC(C(=O)O)C2)cc(F)cc1-c1nnc(-c2ccc(CC(C)C)c(C#N)c2)s1 [Example 15, 1-{2-[3-{5-[3-cyano-4-(2-methylpropyl)phenyl]-1,3,4-thiadiazol-2-yl}-5-fluoro-2-(methyloxy)phenyl]ethyl}-3-azetidinecarboxylic acid]	≤ 10	> 10
CCc1c(CN2CCC(C(=O)O)CC2)cccc1-c1nsc(-c2ccc(OC(C)C)c(C(F)(F)F)c2)n1 [Example 18, 1-[(2-ethyl-3-{5-[4-[(1-methylethyl)oxy]-3-(trifluoromethyl)phenyl]-1,2,4-thiadiazol-3-yl}phenyl)methyl]-4-piperidinecarboxylic acid trifluoroacetate]	< 100	> 3.16
COc1c(CCN2CC(C(=O)O)C2)cc(F)cc1-c1cnc(-c2ccc(OC(C)C)c(Cl)c2)s1 [Example 33, 1-{2-[3-(2-{3-chloro-4-[(1-methylethyl)oxy]phenyl}-1,3-thiazol-5-yl)-5-fluoro-2-(methyloxy)phenyl]ethyl}-3-azetidinecarboxylic acid trifluoroacetate]	< 1	> 3.16
CCc1c(CCCN2CCC(C(=O)O)C2)cccc1-c1cnc(-c2ccc(OC(C)C)c(C#N)c2)s1 (stereo not drawn) [Example 94]	≤ 10	> 3.16
CCc1c(CN2CCC(C(=O)O)CC2)cccc1-c1nnc(-c2ccc(CC(C)C)c(C#N)c2)s1 [Example 8, 1-[(3-{5-[3-cyano-4-(2-methylpropyl)phenyl]-1,3,4-thiadiazol-2-yl}-2-ethylphenyl)methyl]-4-piperidinecarboxylic acid trifluoroacetate]	< 1	> 3.16
CCc1c(CCN2CC(C(=O)O)C2)cccc1-c1cnc(-c2ccc(OC(C)C)c(C#N)c2)s1 [Example 34, 1-{2-[3-(2-{3-cyano-4-[(1-methylethyl)oxy]phenyl}-1,3-thiazol-5-yl)-2-ethylphenyl]ethyl}-3-azetidinecarboxylic acid trifluoroacetate]	< 1	> 3.16
CCc1c(CCN2CCC(C(=O)O)C2)cccc1-c1nnc(-c2ccc(OC(C)C)c(Cl)c2)s1 (stereo not drawn) [Example 12, 1-{2-[3-(5-{3-chloro-4-[(1-methylethyl)oxy]phenyl}-1,3,4-thiadiazol-2-yl)-2-ethylphenyl]ethyl}-3-pyrrolidinecarboxylic acid trifluoroacetate]	< 1	> 3.16
CCc1c(CCN2CCC(C(=O)O)CC2)cccc1-c1nsc(-c2cnc(OC(C)C)c(Cl)c2)n1 [Example 75, 1-{2-[3-(5-{5-chloro-6-[(1-methylethyl)oxy]-3-pyridinyl}-1,2,4-thiadiazol-3-yl)-2-ethylphenyl]ethyl}-4-piperidinecarboxylic acid trifluoroacetate]	≤ 10	> 3.16
CCc1c(CN2CCC(C(=O)O)C2)cccc1-c1nnc(-c2ccc(CC(C)C)c(C#N)c2)s1 (stereo not drawn) [Example 48, 1-[(3-{5-[3-cyano-4-(2-methylpropyl)phenyl]-1,3,4-thiadiazol-2-yl}-2-ethylphenyl)methyl]-3-pyrrolidinecarboxylic acid]	< 1	> 3.16
